Reference: US20260364184A1, “COMPOUND BASED ON OXOISOINDOLINYL-SUBSTITUTED TETRAHYDROPYRIMIDINE-DIONE AND USE THEREOF” (GLUETACS THERAPEUTICS (SHANGHAI) CO., LTD., priority 2023, published 2026)

Key:
IKZF3 = target: T1, IKZF3 (Homo sapiens, UniProt Q96SW2+Q9UKT9); test: Western blot degradation of IKZF3; assay type: cell-based; conditions: hPBMC Cell; 24 hours
T1 construct: expression of target proteins in cells; endogenous in cells
Experimental: (§1) Conventional Western blot assay was performed to evaluate the effects of the compounds of the present disclosure on the expression of target proteins in cells.
(§2) (1) Cell Seeding and Protein Harvesting: The selected cells were processed according to the cell seeding procedure and protein harvesting procedure in Table II-2.
(§3) (2) To the collected supernatant, 5×SDS sample loading buffer was added, followed by denaturation at 95 °C for 5 minutes. The denatured samples were then separated by SDS-PAGE electrophoresis on a polyacrylamide gel. Proteins were transferred to a nitrocellulose membrane (0.45 μm NC membrane), blocked with blocking buffer at room temperature for 1 hour, and subjected to antibody incubation and development procedures according to the antibody manufacturer's instructions (Cell Signaling Technology).
(§4) Half-Maximal Degradation Concentration value (the drug concentration required for degrading proteins by 50%, abbreviated as DC50) reads method: comparing the grayscale values of Western blot bands from drug-treated samples with those from blank DMSO-treated controls, and identifying the drug concentration range at which the grayscale value is half that of the DMSO-treated control bands.
(§5) DC50 values can be calculated using ImageJ software to measure grayscale values of Western blot bands from drug-treated samples. The concentration-response curve is fitted to estimate the drug concentration corresponding to half the grayscale value.
(§6) Target protein remaining (%) refers to the percentage of target protein remaining in cells after treatment with protein degrader compounds.
(§7) Calculation method for target protein remaining (%): Use ImageJ software to measure grayscale values of Western blot bands from drug (protein degrader)-treated samples. The grayscale value of drug-treated bands is divided by that of internal control protein bands, and the resulting quotient is normalized to obtain the relative percentage of remaining target protein after protein degrader treatment.
(§8) Target protein degradation rate (%)=1−target protein remaining (%).

WEE1 = target: T2, WEE1 (Homo sapiens, UniProt P30291+Q96SW2); test: Western blot degradation of WEE1; assay type: cell-based; conditions: hPBMC Cell; 24 hours
T2 construct: expression of target proteins in cells; endogenous in cells
T2 sequence (P30291 whole entry): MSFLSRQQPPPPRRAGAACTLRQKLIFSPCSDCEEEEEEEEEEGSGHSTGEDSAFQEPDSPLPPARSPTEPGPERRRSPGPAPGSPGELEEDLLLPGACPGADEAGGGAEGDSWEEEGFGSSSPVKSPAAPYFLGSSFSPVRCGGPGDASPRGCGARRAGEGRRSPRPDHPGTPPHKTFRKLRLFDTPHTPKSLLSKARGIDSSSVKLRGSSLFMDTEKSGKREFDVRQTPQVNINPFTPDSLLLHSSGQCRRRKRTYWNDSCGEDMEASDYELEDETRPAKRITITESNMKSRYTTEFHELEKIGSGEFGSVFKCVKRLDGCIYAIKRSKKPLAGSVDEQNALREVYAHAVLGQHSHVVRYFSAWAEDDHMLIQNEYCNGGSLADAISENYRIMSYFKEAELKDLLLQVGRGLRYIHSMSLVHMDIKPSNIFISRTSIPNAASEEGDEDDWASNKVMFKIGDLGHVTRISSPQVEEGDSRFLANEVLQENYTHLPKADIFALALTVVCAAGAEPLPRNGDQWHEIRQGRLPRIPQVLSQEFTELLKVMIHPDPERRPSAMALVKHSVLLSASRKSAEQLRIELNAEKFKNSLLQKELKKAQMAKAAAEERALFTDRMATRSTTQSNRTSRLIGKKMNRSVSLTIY
T2 sequence (Q96SW2 whole entry): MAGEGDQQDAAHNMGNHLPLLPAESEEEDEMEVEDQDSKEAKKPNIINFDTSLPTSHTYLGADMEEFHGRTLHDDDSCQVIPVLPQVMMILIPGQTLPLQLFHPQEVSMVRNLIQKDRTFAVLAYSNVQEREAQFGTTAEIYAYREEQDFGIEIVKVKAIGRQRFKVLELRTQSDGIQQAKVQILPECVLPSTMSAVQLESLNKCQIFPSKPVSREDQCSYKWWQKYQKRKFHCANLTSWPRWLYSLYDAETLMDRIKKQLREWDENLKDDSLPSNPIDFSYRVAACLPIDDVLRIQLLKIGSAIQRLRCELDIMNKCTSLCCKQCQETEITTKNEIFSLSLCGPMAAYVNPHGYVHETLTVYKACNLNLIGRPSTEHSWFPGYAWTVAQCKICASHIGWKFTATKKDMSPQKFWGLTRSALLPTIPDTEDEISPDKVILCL
T2 sequence (Q16531 whole entry partner): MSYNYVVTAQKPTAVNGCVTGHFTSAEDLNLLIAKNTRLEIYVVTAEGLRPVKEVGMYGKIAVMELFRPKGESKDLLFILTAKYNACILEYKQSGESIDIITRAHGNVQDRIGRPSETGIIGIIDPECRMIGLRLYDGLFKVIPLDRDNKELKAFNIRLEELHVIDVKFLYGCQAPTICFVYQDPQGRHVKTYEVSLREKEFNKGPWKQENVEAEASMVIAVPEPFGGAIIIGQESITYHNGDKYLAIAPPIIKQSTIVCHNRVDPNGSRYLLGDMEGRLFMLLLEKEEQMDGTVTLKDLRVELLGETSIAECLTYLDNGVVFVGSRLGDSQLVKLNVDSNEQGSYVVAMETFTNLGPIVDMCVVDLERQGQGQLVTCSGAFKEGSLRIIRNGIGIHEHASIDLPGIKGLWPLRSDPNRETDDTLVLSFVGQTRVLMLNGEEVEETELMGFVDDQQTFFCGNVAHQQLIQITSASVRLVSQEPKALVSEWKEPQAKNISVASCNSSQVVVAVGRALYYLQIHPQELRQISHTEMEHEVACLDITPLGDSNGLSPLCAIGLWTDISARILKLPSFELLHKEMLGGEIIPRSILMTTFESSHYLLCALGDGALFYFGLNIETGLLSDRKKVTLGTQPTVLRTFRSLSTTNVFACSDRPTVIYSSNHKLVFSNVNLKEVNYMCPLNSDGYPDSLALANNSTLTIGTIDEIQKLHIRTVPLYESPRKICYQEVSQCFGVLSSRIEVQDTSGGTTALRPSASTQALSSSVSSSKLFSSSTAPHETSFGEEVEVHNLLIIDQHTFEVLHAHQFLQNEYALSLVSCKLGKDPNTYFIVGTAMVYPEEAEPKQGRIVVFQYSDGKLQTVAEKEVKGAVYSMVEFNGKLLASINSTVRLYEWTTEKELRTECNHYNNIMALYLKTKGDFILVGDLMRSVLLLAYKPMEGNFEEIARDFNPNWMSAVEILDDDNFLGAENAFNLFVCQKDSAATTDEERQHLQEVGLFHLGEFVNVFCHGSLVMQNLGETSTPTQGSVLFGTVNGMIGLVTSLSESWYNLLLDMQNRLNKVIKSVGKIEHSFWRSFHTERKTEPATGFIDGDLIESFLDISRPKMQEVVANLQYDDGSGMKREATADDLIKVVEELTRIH
Experimental: as §1, §2, §3, §4, §5, §6, §7, §8

IKZF2 = target: T3, IKZF2 (Homo sapiens, UniProt Q96SW2+Q9UKS7); test: Western blot degradation of IKZF2; assay type: cell-based; conditions: hPBMC Cell; 24 hours
T3 construct: expression of target proteins in cells; endogenous in cells
Experimental: as §1, §2, §3, §4, §5, §6, §7, §8

IKZF1 = target: T4, IKZF1 (Homo sapiens, UniProt Q13422+Q96SW2); test: Western blot degradation of IKZF1; assay type: cell-based; conditions: hPBMC Cell; 24 hours
T4 construct: expression of target proteins in cells; endogenous in cells
T4 sequence (Q13422 whole entry): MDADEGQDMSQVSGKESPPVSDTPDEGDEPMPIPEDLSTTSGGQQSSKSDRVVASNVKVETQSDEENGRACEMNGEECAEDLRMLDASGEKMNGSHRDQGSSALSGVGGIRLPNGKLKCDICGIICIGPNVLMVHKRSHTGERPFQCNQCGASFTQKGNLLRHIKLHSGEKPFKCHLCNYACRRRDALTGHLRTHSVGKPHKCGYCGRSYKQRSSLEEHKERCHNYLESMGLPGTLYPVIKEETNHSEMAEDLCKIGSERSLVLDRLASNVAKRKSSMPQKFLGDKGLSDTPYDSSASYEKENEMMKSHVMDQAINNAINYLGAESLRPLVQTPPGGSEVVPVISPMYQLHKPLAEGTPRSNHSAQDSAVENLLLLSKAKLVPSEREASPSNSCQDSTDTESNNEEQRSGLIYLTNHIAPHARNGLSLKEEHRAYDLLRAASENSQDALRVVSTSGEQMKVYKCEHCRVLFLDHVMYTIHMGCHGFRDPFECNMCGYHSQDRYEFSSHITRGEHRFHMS
T4 sequence (Q96SW2 whole entry): as the sequence (Q96SW2 whole entry) above
T4 sequence (Q16531 whole entry partner): as the sequence (Q16531 whole entry partner) above
Experimental: as §1, §2, §3, §4, §5, §6, §7, §8

GSPT1 = target: T5, GSPT1 (Homo sapiens, UniProt P15170+Q96SW2); test: Western blot degradation of GSPT1; assay type: cell-based; conditions: hPBMC Cell; 24 hours
T5 construct: expression of target proteins in cells; endogenous in cells
T5 sequence (P15170 whole entry): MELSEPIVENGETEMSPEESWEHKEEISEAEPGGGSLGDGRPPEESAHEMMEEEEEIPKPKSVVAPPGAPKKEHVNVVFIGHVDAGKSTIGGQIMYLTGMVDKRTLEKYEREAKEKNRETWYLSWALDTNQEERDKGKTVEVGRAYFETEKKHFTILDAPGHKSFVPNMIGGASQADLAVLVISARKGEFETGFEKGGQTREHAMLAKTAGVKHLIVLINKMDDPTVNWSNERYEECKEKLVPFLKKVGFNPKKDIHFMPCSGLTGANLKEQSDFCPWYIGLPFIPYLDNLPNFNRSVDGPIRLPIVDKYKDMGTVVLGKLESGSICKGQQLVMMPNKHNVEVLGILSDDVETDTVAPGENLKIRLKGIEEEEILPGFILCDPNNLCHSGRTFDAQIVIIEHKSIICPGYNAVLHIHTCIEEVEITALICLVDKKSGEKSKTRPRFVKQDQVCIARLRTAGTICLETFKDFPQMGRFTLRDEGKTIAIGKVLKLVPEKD
T5 sequence (Q96SW2 whole entry): as the sequence (Q96SW2 whole entry) above
T5 sequence (Q16531 whole entry partner): as the sequence (Q16531 whole entry partner) above
Experimental: as §1, §2, §3, §4, §5, §6, §7, §8

CK1α = target: T6, CK1α (Homo sapiens, UniProt P48729+Q96SW2); test: Western blot degradation of CK1α; assay type: cell-based; conditions: hPBMC Cell; 24 hours
T6 construct: expression of target proteins in cells; endogenous in cells
T6 sequence (P48729 whole entry): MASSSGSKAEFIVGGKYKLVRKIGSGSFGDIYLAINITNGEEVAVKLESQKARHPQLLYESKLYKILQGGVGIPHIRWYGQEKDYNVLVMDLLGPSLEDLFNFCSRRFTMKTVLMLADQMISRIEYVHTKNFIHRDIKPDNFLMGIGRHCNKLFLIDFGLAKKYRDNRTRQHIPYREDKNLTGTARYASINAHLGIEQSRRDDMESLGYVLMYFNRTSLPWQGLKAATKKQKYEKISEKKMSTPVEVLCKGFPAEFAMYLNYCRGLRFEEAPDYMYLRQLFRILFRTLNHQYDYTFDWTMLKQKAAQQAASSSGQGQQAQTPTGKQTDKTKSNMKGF
T6 sequence (Q96SW2 whole entry): as the sequence (Q96SW2 whole entry) above
T6 sequence (Q16531 whole entry partner): as the sequence (Q16531 whole entry partner) above
Experimental: as §1, §2, §3, §4, §5, §6, §7, §8

EGFR = target: T7, EGFR (Homo sapiens, UniProt P00533); test: Western blot degradation of EGFR; assay type: cell-based; conditions: H1975 Cell; 24 hours
T7 construct: L858R/T790M in cis, heterozygous with wild type), Western blot
Outline: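 Immunoblot of drug-treated versus DMSO-treated cell lysates, with densitometric quantification. Values: DC50 (50% band loss, fitted) and loading-control-normalised % remaining or degradation.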

[1] = system: Human non-small cell lung cancer cell line NCI-H1975; test: Inhibition of H1975 cell proliferation (CellTiter luminescent viability); assay type: cell-based; conditions: Table ID1, EGFR inhibitor-based; H1975, 96 hours; read-out: Inhibitory activity (IC50, nM) on tumor cell proliferation, H1975
Experimental: The tumor cells used herein were cultured in a cell culture medium listed in table 3 at 37 °C in an incubator with 5% CO2. Prior to experimentation, all cell lines used were correctly identified by STR profiling, and tested negative for mycoplasma contamination using a mycoplasma detection kit through routine screenings.
The IC50 values of the compounds of the present disclosure (including the compounds in Table 1, Table 2, and Examples 1-468) were determined using the CellTiter-Meiluncell Luminescent Cell Viability Assay Kit from Dalian Meilun Biotech Co., Ltd. The detailed procedure is as follows: Tumor cells were seeded in 96-well cell culture plates at the densities specified in Table 4. On the following day, the test compounds of the present disclosure were subjected to serial dilution. The dilution can be performed according to one of the following two methods: • (1) The first dilution method: The test compounds of the present disclosure (including the compounds in Table 1, Table 2, and Examples 1-468) were subjected to 5-fold serial dilutions starting from a highest concentration of 2000 μM, resulting in a total of 9 concentrations from high to low (2000, 400, 80, 16, 3.2, 0.64, 0.128, 0.0256, 0.00512 μM). Subsequently, 0.5 μL of the test compound dilution was transferred into the 96-well plate containing the cells, with each well containing 100 μL of cell culture medium. […] Into the 96-well plate, the diluted test compounds and corresponding detection reagents were added, resulting in final test compound concentrations of 500 nM and 10 nM, respectively. The experimental procedure is described below using the diluted 2 μM test compound as an example.
0.5 μL of the aforementioned diluted compound of the present disclosure (including the compounds in Table 1, Table 2, and Examples 1-468) was added to the seeded cells in 100 μL of medium, yielding a final test compound concentration of 10 nM. After the cells were treated with the compounds of the present disclosure for a specified period, the cell viability assay reagent was added to the culture medium according to the kit's instructions to determine cell viability. […] All controls were treated using the same procedure as the compounds of the present disclosure. The growth inhibition curves for the compounds of the present disclosure were plotted using Prism GraphPad software, and the IC50 values were calculated therefrom.

[2] = target: T8, human Cereblon WT GST-tagged protein (CRBN) (Homo sapiens, UniProt Q96SW2); test: CRBN binding by HTRF (Cereblon binding kit)
T8 construct: purchased CISBIO 64BDCRBNPEH
T8 sequence (Q96SW2 whole entry): as the sequence (Q96SW2 whole entry) above
Outline: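 GST-tagged human Cereblon WT was incubated 3 h at room temperature with compound, thalidomide-Re tracer and Eu anti-GST antibody. Final compound concentrations were 10 to 0.00064 µM (7 points) or 2 and 0.5 µM. Inhibition rate was calculated from HTRF 665/620 nm ratios versus solvent and blank controls.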

T1 sequence (Q9UKT9 whole entry): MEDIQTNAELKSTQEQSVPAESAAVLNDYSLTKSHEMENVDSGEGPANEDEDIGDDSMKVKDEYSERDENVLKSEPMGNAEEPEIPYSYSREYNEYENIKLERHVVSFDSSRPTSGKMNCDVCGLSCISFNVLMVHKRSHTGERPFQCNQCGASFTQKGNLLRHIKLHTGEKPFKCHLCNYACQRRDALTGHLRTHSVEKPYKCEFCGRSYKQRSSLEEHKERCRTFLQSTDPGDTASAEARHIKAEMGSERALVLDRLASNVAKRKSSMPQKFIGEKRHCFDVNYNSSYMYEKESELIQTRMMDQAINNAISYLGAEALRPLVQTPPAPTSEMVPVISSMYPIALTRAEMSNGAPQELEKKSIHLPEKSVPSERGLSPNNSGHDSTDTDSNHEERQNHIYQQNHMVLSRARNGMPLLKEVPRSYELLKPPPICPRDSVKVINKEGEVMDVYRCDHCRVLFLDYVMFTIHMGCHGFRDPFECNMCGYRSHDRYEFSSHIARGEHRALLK
T1 sequence (Q96SW2 whole entry): as the sequence (Q96SW2 whole entry) above
T1 sequence (Q16531 whole entry partner): as the sequence (Q16531 whole entry partner) above

| SMILES | Degradation of substrate protein IKZF3 (substrate protein remaining %) (IKZF3) | Degradation of substrate protein WEE1 (substrate protein remaining %) (WEE1) | Degradation of substrate protein IKZF2 (substrate protein remaining %) (IKZF2) | Degradation of substrate protein IKZF1 (substrate protein remaining %) (IKZF1) | Degradation of substrate protein GSPT1 (substrate protein remaining %) (GSPT1) | Degradation of substrate protein CK1α (substrate protein remaining %) (CK1α) | Degradation of substrate protein EGFR (substrate protein remaining %) (EGFR) | IC50 [1] [nM] | Inhibition Rate at 0.5 μM (%) [2] | Inhibition Rate at 2 μM (%) [2] |
| --- | --- | --- | --- | --- | --- | --- | --- | --- | --- | --- |
| O=C1CCN(N2C(=O)c3ccc(Br)cc3C2=O)C(=O)N1 [GT-04511, 5-bromo-2-(2,4-dioxotetrahydropyrimidin-1(2H)-yl)isoindoline-1,3-dione] | B (80%<substrate protein remaining %≤100%) | B (80%<substrate protein remaining %≤100%) | B (80%<substrate protein remaining %≤100%) | B (80%<substrate protein remaining %≤100%) | A (0%≤substrate protein remaining %≤80%) | B (80%<substrate protein remaining %≤100%) | – | – | – | – |
| O=C1CCN(N2C(=O)c3ccc(CO)cc3C2=O)C(=O)N1 [GT-04536, 2-(2,4-dioxotetrahydropyrimidin-1(2H)-yl)-5-(hydroxymethyl)isoindoline-1,3-dione] | B (80%<substrate protein remaining %≤100%) | B (80%<substrate protein remaining %≤100%) | B (80%<substrate protein remaining %≤100%) | B (80%<substrate protein remaining %≤100%) | A (0%≤substrate protein remaining %≤80%) | B (80%<substrate protein remaining %≤100%) | – | – | – | – |
| O=C1CCN(N2C(=O)c3ccc(N4CCC(N5CCNCC5)C(F)(F)C4)cc3C2=O)C(=O)N1 (centres unmarked) [GT-04990, 5-(3,3-difluoro-4-(piperazin-1-yl)piperidin-1-yl)-2-(2,4-dioxotetrahydropyrimidin-1(2H)-yl)isoindoline-1,3-dione] | B (80%<substrate protein remaining %≤100%) | A (0%≤substrate protein remaining %≤80%) | B (80%<substrate protein remaining %≤100%) | B (80%<substrate protein remaining %≤100%) | A (0%≤substrate protein remaining %≤80%) | B (80%<substrate protein remaining %≤100%) | – | – | – | – |
| O=C1CCN(N2Cc3cc(CN4C[C@@H]5C[C@H]4CN5c4ccc(-c5cc(F)c6c(c5)C(=O)N(C(C(=O)Nc5nccs5)c5ncn7c5CCC7)C6)cc4)ccc3C2=O)C(=O)N1 (stereo partly drawn) [GT-05114, 2-(6,7-dihydro-5H-pyrrolo[1,2-c]imidazol-1-yl)-2-(6-(4-((1S,4S)-5-((2-(2,4-dioxotetrahydropyrimidin-1(2H)-yl)-1-oxoisoindolin-5-yl)methyl)-2,5-diazabicyclo[2.2.1]heptan-2-yl)phenyl)-4-fluoro-1-oxoisoindolin-2-yl)-N-(thiazol-2-yl)acetamide] | – | – | – | – | – | – | A (0%≤substrate protein remaining %≤80%) | 100 to 130 | a2 (20% < a2 ≤ 30%) | a5 (53% < a5 ≤ 60%) |
| O=C1CCN(N2Cc3cc(CO)ccc3C2=O)C(=O)N1 [GT-05567, 1-(5-(hydroxymethyl)-1-oxoisoindolin-2-yl)dihydropyrimidine-2,4(1H, 3H)-dione] | A (0%≤substrate protein remaining %≤80%) | A (0%≤substrate protein remaining %≤80%) | B (80%<substrate protein remaining %≤100%) | A (0%≤substrate protein remaining %≤80%) | A (0%≤substrate protein remaining %≤80%) | A (0%≤substrate protein remaining %≤80%) | – | – | – | – |
| O=C1CCN(N2Cc3c(O)cccc3C2=O)C(=O)N1 [GT-05570, 1-(4-hydroxy-1-oxoisoindolin-2-yl)dihydropyrimidine-2,4(1H, 3H)-dione] | A (0%≤substrate protein remaining %≤80%) | A (0%≤substrate protein remaining %≤80%) | A (0%≤substrate protein remaining %≤80%) | A (0%≤substrate protein remaining %≤80%) | A (0%≤substrate protein remaining %≤80%) | A (0%≤substrate protein remaining %≤80%) | – | – | – | – |
| O=C1CCN(N2C(=O)c3ccc(F)cc3C2=O)C(=O)N1 [GT-05575, 2-(2,4-dioxotetrahydropyrimidin-1(2H)-yl)-5-fluoroisoindoline-1,3-dione] | A (0%≤substrate protein remaining %≤80%) | A (0%≤substrate protein remaining %≤80%) | A (0%≤substrate protein remaining %≤80%) | B (80%<substrate protein remaining %≤100%) | A (0%≤substrate protein remaining %≤80%) | A (0%≤substrate protein remaining %≤80%) | – | – | – | – |
| O=C1CCN(N2Cc3cc(CN4CCN(C5CCN(c6ccc(-c7cc(F)c8c(c7)C(=O)N(C(C(=O)Nc7nccs7)c7ncn9c7CCC9)C8)cc6)CC5)CC4)ccc3C2=O)C(=O)N1 (centres unmarked) [GT-06241, 2-(6,7-dihydro-5H-pyrrolo[1,2-c]imidazol-1-yl)-2-(6-(4-(4-(4-((2-(2,4-dioxotetrahydropyrimidin-1(2H)-yl)-1-oxoisoindolin-5-yl)methyl)piperazin-1-yl)piperidin-1-yl)phenyl)-4-fluoro-1-oxoisoindolin-2-yl)-N-(thiazol-2-yl)acetamide] | – | – | – | – | – | – | A (0%≤substrate protein remaining %≤80%) | 10 to 50 | a1 (10% < a1 ≤ 20%) | a5 (53% < a5 ≤ 60%) |
